Values after ≈ are worked out from the molar mass of the structure shown.
How the values were obtained:
[1] = system: human topoisomerase IIα; design: method as in PMID 15182198; details: cited from earlier work
[2] = system: A549; experiment: MTT cytotoxicity assay, A549; assay type: cell-based, human; details: Homo sapiens
Procedure: (§1) The cytotoxic assay of 11 naturally occurring and 19 synthesized phenanthrenes was carried out on a diverse set of human liver (HepG2 and Hep3B), oral (Ca9-22), lung (A549) and breast (MEA-MB-231 and MCF7) cancer cell lines, and a human fetal lung fibroblast (MRC-5) cell line (Tables 1 and 2).
(§2) Compounds were tested against human liver (HepG2 and Hep3B), oral (Ca9-22), lung (A549), breast (MEA-MB-231 and MCF7) cancer cell lines, and the human fetal lung fibroblast (MRC-5) cell line using an established colorimetric MTT assay protocol. The absorbance was measured at 550 nm using a microplate reader. The IC50 is the concentration of agent that reduced cell growth by 50% under the experimental conditions.

[3] = molecular target: T1, topoisomerase IIα (Homo sapiens, UniProt P11388); experiment: Topoisomerase II DNA cleavage assay (Topo II Drug Screening Kit); assay type: biochemical
T1 construct: purchased TopoGEN, Inc
Procedure: From the ChemGPS-NP analysis, it seems that the MOA for 3-methoxy-1,4-PQs might processes cytotoxicity as a topoisomerase II inhibitor.
Figure 10 Topoisomerase II DNA cleavage assay. An in vitro assay was used to assess the effect of compounds 6a and 5a on the DNA cleavage activity of human TopoII. Etoposide was the positive control. Control lane: TopoIIα + plasmid DNA. DMSO lane: TopoIIα + plasmid DNA + DMSO.
Topoisomerase II assay was performed by using a Topo II Drug Screening Kit (TopoGEN, Inc.). In brief, 0.1 µg of pHOT plasmid DNA was incubated with 2 units of topoisomerase IIα in 20 µL assay buffer at 37°C for 40 min in the presence of tested compounds (6a, 5a) and control drug, etoposide, respectively. 2 µL of 10% SDS and 2.5 µL of 10 mg/mL proteinase K were added into the reaction sample and then incubated for 30 min at 37°C to digest topoisomerase IIα. The samples were mixed with 2 µL of loading buffer and cleaned up by adding an equal volume of phenol:chloroform:isoamyl alcohol (25∶24∶1) according to the description. The sample was mixed by vortex and centrifuge for 10 sec. An aliquot (10 µL) of the upper aqueous part was analyzed by electrophoresis with 2% agarose gel containing 0.5 µg/mL of ethidium bromide.

[4] = system: human cancer cell lines; experiment: MTT cytotoxicity assay, ranges over the cancer cell line panel; assay type: cell-based
Procedure: as §1, §2

[5] = system: HepG2; experiment: MTT cytotoxicity assay, HepG2; assay type: cell-based, human; details: Homo sapiens
Procedure: as §1, §2

[6] = system: MCF-7; experiment: MTT cytotoxicity assay, MCF-7; assay type: cell-based, human; details: Homo sapiens; for IC50: MTT
Procedure: as §1, §2
The pharmacophore modeling with Catalyst HypoGen was performed via Discovery Studio 2.1 (Accelrys, San Diego, CA, USA). Twenty-nine phenanthrene derivatives were collected from the natural plant, C. arisanensis, and from chemical synthesis (Figure 2). Cytotoxicity against MCF-7 cells was determined by the MTT assay and the concentration (µg/mL) of test compound which inhibited 50% of the cancer cells (IC50) was used in the generation of the pharmacophore model. An IC50 value of >20 µg/mL was defined as 20 µg/mL. All experimental IC50 values spanned about 2–3 orders of magnitude from 0.09 to 20 µg/mL. The 2D/3D structures of compounds were generated using ChemBioOffice 2008 (Cambridge Scientic Computing, Cambridge, Massachusetts, USA) and then optimized in a Dreiding force field. The conformational ensemble of each compound was generated using the best conformational analysis method based on a CHARMM force field with a 20 kcal/mol energy threshold above the global minimum. A maximum limit of 255 conformations was used to cover maximum conformational space. The best 3D arrangements of chemical functionalities should explain the activity variations among the 29 compounds. Thirty runs with different parameters were performed for the best pharmacophore hypothesis. Four chemical features, including hydrogen-bond acceptor (HBA), hydrogen-bond donor (HBD), hydrophobic (HYD), and aromatic ring (AR) features, were also tested during the building of pharmacophore hypotheses (Table S1; Text S1). The best hypotheses were selected via a correlation and a cost analysis in Catalyst HypoGen.

[7] = system: MRC-5; experiment: MTT cytotoxicity assay, MRC-5 fetal lung fibroblast; assay type: cell-based, human; details: Homo sapiens, normal fetal lung fibroblast
Procedure: as §1, §2

[8] = system: Ca9-22; experiment: MTT cytotoxicity assay, Ca9-22; assay type: cell-based, human; details: Homo sapiens
Procedure: as §1, §2

[9] = system: Hep3B; experiment: MTT cytotoxicity assay, Hep3B; assay type: cell-based, human; details: Homo sapiens, Hep3B
Procedure: as §1, §2

[10] = system: MDA-MB-231; experiment: MTT cytotoxicity assay, MDA-MB-231; assay type: cell-based, human; details: Homo sapiens
Procedure: as §1, §2

T1 sequence (P11388 whole entry): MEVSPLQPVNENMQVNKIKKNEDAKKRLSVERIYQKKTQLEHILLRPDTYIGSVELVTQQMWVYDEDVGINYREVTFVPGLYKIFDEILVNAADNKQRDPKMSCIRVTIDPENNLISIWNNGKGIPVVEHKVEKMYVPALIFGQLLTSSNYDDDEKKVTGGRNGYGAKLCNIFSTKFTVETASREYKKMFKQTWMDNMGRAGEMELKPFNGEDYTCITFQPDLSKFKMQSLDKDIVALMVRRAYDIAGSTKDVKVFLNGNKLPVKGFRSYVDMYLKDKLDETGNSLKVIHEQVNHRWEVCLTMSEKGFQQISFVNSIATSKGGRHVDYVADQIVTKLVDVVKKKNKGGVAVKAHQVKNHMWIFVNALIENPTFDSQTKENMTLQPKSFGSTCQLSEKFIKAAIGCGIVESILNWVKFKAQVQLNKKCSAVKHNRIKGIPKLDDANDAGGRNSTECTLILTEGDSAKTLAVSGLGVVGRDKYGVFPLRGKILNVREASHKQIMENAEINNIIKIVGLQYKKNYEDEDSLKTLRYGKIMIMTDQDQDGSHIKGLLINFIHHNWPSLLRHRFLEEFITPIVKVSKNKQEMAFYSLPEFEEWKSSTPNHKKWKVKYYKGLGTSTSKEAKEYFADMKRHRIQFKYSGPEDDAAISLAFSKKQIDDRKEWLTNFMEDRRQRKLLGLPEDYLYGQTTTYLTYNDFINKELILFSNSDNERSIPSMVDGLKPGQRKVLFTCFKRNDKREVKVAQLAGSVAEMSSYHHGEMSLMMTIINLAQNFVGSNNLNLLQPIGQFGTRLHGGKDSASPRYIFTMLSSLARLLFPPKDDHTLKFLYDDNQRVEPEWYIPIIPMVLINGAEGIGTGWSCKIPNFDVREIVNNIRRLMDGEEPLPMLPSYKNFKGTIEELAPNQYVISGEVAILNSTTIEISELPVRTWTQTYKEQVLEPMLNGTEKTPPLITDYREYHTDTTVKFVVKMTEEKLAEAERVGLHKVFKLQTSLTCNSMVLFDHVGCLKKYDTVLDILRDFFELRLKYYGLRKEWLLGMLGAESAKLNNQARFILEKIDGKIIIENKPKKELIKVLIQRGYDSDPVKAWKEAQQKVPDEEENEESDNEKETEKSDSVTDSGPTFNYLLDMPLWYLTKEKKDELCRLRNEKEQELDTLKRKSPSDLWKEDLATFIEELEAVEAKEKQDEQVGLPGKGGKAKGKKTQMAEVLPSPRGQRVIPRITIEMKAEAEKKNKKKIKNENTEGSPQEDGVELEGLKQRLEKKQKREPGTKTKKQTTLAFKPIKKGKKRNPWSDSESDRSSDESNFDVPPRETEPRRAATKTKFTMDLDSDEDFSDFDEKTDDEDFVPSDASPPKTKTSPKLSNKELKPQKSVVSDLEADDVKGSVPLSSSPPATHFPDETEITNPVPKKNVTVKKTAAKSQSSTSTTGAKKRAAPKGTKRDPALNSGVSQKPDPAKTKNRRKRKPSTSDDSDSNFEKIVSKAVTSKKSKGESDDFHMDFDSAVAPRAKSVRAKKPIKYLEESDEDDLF

| Compound | poisoning of human topoisomerase IIα [1] | IC50 ([2]; A549, Table 1, natural phenanthrenes) | IC50 ([2]; A549, Table 2, synthesized phenanthrenes) | inhibition on Topo IIα (supercoiled DNA instead of relaxed) ([3]; 100 µmol/L) | formation of linear DNA (Topo IIα DNA cleavage complex) ([3]; pHOT plasmid DNA, topoisomerase IIα) | fold greater cytotoxic activity than denbinobin (6b) ([4]; HepG2, Hep3B, Ca9-22, A549, MEA-MB-231 and MCF7 cancer cell lines) | IC50 ([4]; Homo sapiens, range over the cancer cell lines tested, read-out: IC50 against various / all human cancer cell lines) | IC50 ([5]; HepG2, Table 1, natural phenanthrenes) | IC50 ([5]; HepG2, Table 2, synthesized phenanthrenes) | IC50 ([6]; MCF7, Table 1, natural phenanthrenes) | IC50 ([6]; MCF7, Table 2, synthesized phenanthrenes) | MCF-7 activity class (from IC50) ([6]; MCF7, Table S3, read-out: Scale Exptl. (MCF-7 activity class)) | IC50 ([7]; MRC5, Table 1, natural phenanthrenes) | IC50 ([7]; MRC5, Table 2, synthesized phenanthrenes) | IC50 ([8]; Ca9-22, Table 1, natural phenanthrenes) | IC50 ([8]; Ca9-22, Table 2, synthesized phenanthrenes) | IC50 ([9]; Table 1, natural phenanthrenes) | IC50 ([9]; Table 2, synthesized phenanthrenes) | IC50 ([10]; MDA-MB-231, Table 1, natural phenanthrenes) | IC50 ([10]; MDA-MB-231, Table 2, synthesized phenanthrenes) |
| --- | --- | --- | --- | --- | --- | --- | --- | --- | --- | --- | --- | --- | --- | --- | --- | --- | --- | --- | --- | --- |
| O=C1C=CC(=O)C=C1 [1,4-benzoquinone] | poison human topoisomerase IIα | – | – | – | – | – | – | – | – | – | – | – | – | – | – | – | – | – | – | – |
| COC1=CC(=O)c2ccc3cc(OC)c(OC)c(O)c3c2C1=O [Compound 6a, 5-Hydroxy-3,6,7-trimethoxy-1,4-phenanthrenequinone] | – | 0.11 µg/mL (≈ 0.35 µM) | 0.14 ± 0.02 µg/mL (≈ 0.445 µM) | showed the inhibition on Topo IIα | induced the formation of linear DNA | up to 7 fold | 0.08 to 1.66 µg/mL (≈ 0.255 to 5.28 µM) | 0.21 ± 0.01 µg/mL (≈ 0.668 µM) | 0.08 µg/mL (≈ 0.255 µM) | 0.09 µg/mL (≈ 0.286 µM) | 0.2 µg/mL (≈ 0.636 µM) | < 1 µg/mL | 0.65 µg/mL (≈ 2.07 µM) | 0.6 ± 0.05 µg/mL (≈ 1.91 µM) | 0.17 ± 0.01 µg/mL (≈ 0.541 µM) | 0.59 ± 0.01 µg/mL (≈ 1.88 µM) | 0.22 µg/mL (≈ 0.7 µM) | 0.19 ± 0.01 µg/mL (≈ 0.605 µM) | 0.64 ± 0.06 µg/mL (≈ 2.04 µM) | 0.89 ± 0.01 µg/mL (≈ 2.83 µM) |

Reference: publication PMC3362575, “Synthesis and Biological Evaluation of Phenanthrenes as Cytotoxic Agents with Pharmacophore Modeling and ChemGPS-NP Prediction as Topo II Inhibitors” (PLoS ONE, 2012)
